We go through two molecules from PMC10799085, “A miniaturized mode-of-action profiling platform enables high throughput characterization of the molecular and cellular dynamics of EZH2 inhibition” (Scientific Reports, 2024).

The test system of experiment [1] is EZH2. Details: method as in Konze et al. [41]. The following applies: 40-fold higher enzyme concentration; ref Konze et al. [41]; cited from earlier work.
Experiment [2] concerns KARPAS-422 cells. Nature of the experiment: Cellular proliferation assay (AlamarBlue, 144 h). In kind it is cell-based. The conditions noted are these: Homo sapiens. The protocol: Cell viability was determined by means of the AlamarBlue® reagent (Thermo Fisher Scientific) following instructions from the manufacturer. […] Anti-proliferative IC50s were calculated by fitting the normalized AlamarBlue® fluorescence values to a 4-parameter logistic equation using the Electronic Notebook (ELN) software from IDBS.
A general note: The colour change of resazurin is a common sign of viable cells or microbes.

Experiment [3] has as its system H3K27me3 mark in MDA-MB-231 cells. Nature of the experiment: High content analysis (HCA) of cellular H3K27me3 mark, washout format. The following applies: for IC50: Homo sapiens, MDA-MB-231, read-out: Mean IC50 (M), H3K27 methylation HCA. The format is cell-based. The method, then:
In the low- and high-signal control wells, test compounds were replaced by 10 µM of EZH2 inhibitor (equal to unlabeled probe from ePCA and kPCA) or DMSO, respectively. […] After fixation, the cells were washed with PBS and incubated with 1% BSA blocking solution at RT for 1 h. Blocking solution was discarded, primary monoclonal antibody rabbit Tri-methyl-histone H3K27 (C36B11, Cell signaling) diluted 1:200 in blocking solution was added and incubated overnight at 4 °C. […] Afterwards, cells were washed three times with PBS and incubated at 4 °C until measuring. Fluorescence signals were captured by an Opera Phenix™ High Content Screening (HCA) system (Perkin Elmer) by 10× magnification. […] Microscopy images were initially visualized and preprocessed with MetaXpress High Content Image Acquisition & Analysis Software (Molecular Devices) as previously described. Raw data import, normalization, quality control and fitting curves for IC50 determination of tested compounds were done with Genedata Screener® for high-content screening. Wells with no recognizable signals were masked and the average intensity of the trimethylation signal was normalized to the DMSO control (0%).

Experiment [4] addresses T1, PRC2/EZH1 (Homo sapiens, UniProt Q92800).
T1 construct: N-terminal 6His-tagged full length EZH2^Y641N, EZH2^Y111L, EZH2^Y111D, EZH2^Y641N, Y661DEZH2, EZH1; 6His (N); made in house; host or cells: Sf9 insect cells (baculovirus co-infection)
Description: Scintillation proximity assay (SPA) of H3K27 methylation. The format is biochemical.

For experiment [5], the target named is T2, PRC2/EZH2+/+ (Homo sapiens, UniProt Q15910).
T2 construct: purchased Active Motif
T2 sequence (Q15910 whole entry): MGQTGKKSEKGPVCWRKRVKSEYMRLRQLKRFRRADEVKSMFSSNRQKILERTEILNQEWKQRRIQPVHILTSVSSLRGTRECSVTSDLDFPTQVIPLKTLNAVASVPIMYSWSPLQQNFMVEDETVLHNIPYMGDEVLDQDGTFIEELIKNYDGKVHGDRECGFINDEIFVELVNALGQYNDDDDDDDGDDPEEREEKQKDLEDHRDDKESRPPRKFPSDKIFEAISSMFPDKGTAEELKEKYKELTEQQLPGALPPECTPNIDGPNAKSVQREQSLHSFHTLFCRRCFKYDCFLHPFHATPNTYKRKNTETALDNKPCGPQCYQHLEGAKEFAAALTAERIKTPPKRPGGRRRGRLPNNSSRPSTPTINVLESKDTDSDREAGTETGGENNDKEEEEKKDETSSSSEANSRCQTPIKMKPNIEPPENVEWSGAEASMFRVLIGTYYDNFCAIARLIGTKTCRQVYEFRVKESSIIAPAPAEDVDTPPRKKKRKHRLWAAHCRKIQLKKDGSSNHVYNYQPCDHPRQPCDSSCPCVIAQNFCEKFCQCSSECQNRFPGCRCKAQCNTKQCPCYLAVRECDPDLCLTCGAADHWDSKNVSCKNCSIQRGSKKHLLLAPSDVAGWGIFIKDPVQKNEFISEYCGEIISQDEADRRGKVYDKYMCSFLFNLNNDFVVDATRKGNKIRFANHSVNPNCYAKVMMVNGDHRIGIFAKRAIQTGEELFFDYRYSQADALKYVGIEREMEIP
T2 sequence (O75530 whole entry partner): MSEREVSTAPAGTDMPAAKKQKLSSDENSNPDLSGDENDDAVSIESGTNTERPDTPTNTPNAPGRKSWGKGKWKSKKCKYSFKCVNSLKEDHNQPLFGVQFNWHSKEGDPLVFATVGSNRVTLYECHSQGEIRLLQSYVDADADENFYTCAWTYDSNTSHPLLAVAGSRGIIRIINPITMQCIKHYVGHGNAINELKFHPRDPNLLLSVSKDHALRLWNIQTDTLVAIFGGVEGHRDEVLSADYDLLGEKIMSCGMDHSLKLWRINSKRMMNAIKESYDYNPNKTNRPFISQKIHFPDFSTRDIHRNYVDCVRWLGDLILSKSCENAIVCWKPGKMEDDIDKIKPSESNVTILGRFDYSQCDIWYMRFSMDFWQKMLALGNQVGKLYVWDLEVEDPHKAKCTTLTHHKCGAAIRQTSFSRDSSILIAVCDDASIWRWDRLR
T2 sequence (Q15022 whole entry partner): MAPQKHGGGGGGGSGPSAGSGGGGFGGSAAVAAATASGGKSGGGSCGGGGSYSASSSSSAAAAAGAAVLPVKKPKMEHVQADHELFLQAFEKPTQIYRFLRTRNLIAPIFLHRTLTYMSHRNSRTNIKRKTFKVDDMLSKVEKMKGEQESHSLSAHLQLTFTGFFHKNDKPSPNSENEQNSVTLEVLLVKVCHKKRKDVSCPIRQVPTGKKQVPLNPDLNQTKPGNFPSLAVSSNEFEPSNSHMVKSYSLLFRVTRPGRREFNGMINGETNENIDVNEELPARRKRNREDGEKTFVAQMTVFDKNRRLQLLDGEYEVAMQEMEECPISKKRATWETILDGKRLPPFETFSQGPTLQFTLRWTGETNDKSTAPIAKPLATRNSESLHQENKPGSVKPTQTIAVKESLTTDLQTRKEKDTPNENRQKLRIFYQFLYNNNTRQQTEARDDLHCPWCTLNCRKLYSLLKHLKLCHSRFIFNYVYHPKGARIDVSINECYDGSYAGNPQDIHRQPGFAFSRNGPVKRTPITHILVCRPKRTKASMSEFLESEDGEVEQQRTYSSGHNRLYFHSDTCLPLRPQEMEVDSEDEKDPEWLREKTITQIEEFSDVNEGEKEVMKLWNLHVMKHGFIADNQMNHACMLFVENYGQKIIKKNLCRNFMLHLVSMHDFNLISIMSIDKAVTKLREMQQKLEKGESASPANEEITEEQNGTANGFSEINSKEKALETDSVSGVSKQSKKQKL
T2 sequence (Q09028 whole entry partner): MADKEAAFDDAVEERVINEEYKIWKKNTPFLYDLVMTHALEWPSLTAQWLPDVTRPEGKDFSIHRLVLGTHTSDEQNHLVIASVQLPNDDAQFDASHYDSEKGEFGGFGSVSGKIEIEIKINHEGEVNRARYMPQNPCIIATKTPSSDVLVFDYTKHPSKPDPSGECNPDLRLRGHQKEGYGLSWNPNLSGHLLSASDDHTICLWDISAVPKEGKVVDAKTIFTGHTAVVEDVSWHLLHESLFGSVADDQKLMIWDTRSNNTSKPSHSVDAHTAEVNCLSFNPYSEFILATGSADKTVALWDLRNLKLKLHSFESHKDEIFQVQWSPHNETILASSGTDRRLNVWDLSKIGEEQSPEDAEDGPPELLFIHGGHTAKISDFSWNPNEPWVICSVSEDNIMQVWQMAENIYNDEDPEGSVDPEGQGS
T2 sequence (Q6ZN18 whole entry partner): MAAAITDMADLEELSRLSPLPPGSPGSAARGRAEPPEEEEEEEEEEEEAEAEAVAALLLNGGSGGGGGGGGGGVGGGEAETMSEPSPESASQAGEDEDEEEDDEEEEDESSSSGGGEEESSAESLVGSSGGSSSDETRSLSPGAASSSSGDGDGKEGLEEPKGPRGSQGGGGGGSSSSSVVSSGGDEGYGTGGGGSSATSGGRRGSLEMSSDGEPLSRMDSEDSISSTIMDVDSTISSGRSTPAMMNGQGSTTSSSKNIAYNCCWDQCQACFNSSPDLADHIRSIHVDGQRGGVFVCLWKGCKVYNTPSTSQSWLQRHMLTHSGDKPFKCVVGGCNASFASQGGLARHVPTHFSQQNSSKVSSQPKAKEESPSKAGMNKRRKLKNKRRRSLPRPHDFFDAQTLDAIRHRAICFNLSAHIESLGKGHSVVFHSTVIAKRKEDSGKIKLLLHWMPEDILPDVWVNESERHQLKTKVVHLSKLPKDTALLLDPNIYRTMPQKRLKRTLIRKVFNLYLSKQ
Description: Equilibrium binding thermodynamics (van't Hoff analysis of ePCA/kPCA at 5-37 °C). The conditions noted are these: ePCA at 5-37 °C, wild type EZH2. The protocol:
(§1) For thermodynamic analysis of the binding to EZH2+/+ the probe characterization, equilibrium and kinetic probe competition assays described above (previously conducted at 25 °C) were performed at 5, 15, 30 and 37 °C. […] For measurements at 25, 30 and 37 °C, the temperature control functionality of the instrument was used.
Equilibrium and kinetic binding constants obtained at various temperatures were used to determine the thermodynamic parameters by van’t Hoff and Eyring analysis, as described elsewhere for SPR and radioligand binding experiments[46],[69]. For the van’t Hoff thermodynamic analysis, changes in entropy ΔS° and enthalpy ΔH° were estimated by linear regression using the van’t Hoff equation. lnKA=ΔS^∘/R-ΔH^∘/RT,
Changes in Gibb’s free energy ΔG° were calculated according to. ΔG^∘T=ΔH^∘-T×ΔS^∘
Additionally, the possible temperature dependence of the thermodynamic parameters was considered using the integrated form of the van’t Hoff equation[47] for nonlinear regression to yield the changes in entropy, enthalpy, and heat capacity ΔCp: ln KA=-ΔH^∘T^∘/RT+ΔS^∘T^∘/R+ΔCp/R[T-T^∘/T-lnT/T^∘],

In experiment [6] the target is T2, PRC2/EZH2+/+. Description: Transition state thermodynamics (Eyring analysis of kPCA at 5-37 °C). The format is binding. The following applies: Kinetic (Eyre); for Enthalpic Efficiency (kon): association; for Enthalpic Efficiency (koff): dissociation. The method, then: as §1
For Eyring transition state analysis, changes in the activation entropy ΔS^# and enthalpy ΔH^# were estimated by Eyring analysis using linear regression of. lnkh/kBT=ΔS^#/R-ΔH^#/(RT).
To consider the possible temperature dependence, the activation entropy and enthalpy were obtained along with the activation heat capacity ΔC^#p by nonlinear regression using. lnkh/kBT=-ΔH^#T^∘/RT+ΔS^#T^∘/R+ΔCp#/R[T-T^∘/T-lnT/T^∘],

SMILES strings stand for the structures. Where two headings read alike, the source gives them in different places.

`CCCc1cc(C)[nH]c(=O)c1CNC(=O)c1cc(-c2ccc(N3CCN(C(C)C)CC3)nc2)cc2c1cnn2C(C)C` [Compound 9, UNC1999]: the IC50 in experiment [1] is 10 nM; in experiment [2] (KARPAS-422 cells, 6-day (144 h), AlamarBlue, read-out: KARPAS (6-day) Anti-proliferation IC50), 6.3e-07 M.

As to `Cc1cc(C)c(CN2CCc3c(Cl)cc(-c4c(C)noc4C)c(Cl)c3C2=O)c(=O)[nH]1` [Compound 14], the “AUC (a.u.)” value in experiment [3] (HCA H3K27 methylation washout pIC50 AUC over all incubation/washout times) is 92.2 a.u. Moreover, the IC50 came to 7e-06 M in experiment [3] (incubation time 0.5 h, washout time 71.5 h); 4.1e-06 M in experiment [3] (incubation time 1 h, washout time 71 h); 2.9e-06 M in experiment [3] (incubation time 2 h, washout time 70 h); 1.8e-06 M in experiment [3] (incubation time 4 h, washout time 68 h); 1.6e-06 M in experiment [3] (incubation time 24 h, washout time 48 h); 5.5e-07 M in experiment [3] (incubation time 48 h, washout time 24 h). The IC50 in experiment [3] (incubation time 72 h, washout time 0 h) was found to be 4.6e-08 M; in experiment [4] (0' enzyme:inhibitor pre-incubation, read-out: SPA Mean IC50 (M) - 0' enzyme:inhibitor pre-incubation EZH1), 3.1e-07 M; in experiment [4] (15' enzyme:inhibitor pre-incubation, read-out: SPA Mean IC50 (M) - 15' enzyme:inhibitor pre-incubation EZH1) it was 2.9e-07 M; in experiment [4] (60' enzyme:inhibitor pre-incubation, read-out: SPA Mean IC50 (M) - 60' enzyme:inhibitor pre-incubation EZH1), 2.9e-07 M; in experiment [2] (KARPAS-422, 144 h, read-out: KARPAS (6-day) Anti-proliferation IC50 (M)) it was 6.4e-07 M. The “Ligand Efficiency - 0' enzyme:inhibitor pre-incubation EZH1” value in experiment [4] was 1.1. The “Ligand Efficiency - 15' enzyme:inhibitor pre-incubation EZH1” value in experiment [4] is recorded as 1.1. Also, the “Ligand Efficiency - 60' enzyme:inhibitor pre-incubation EZH1” value in experiment [4] came to 1.1. Moreover, the “binding driving force, polynomial van't Hoff analysis” value in experiment [5] is “entropy-driven”. In addition, the “Enthalpic Efficiency (kon)” value in experiment [6] (EZH2+/+ (Linear Fit)) was found to be 1.3 kcal/mol; in experiment [6] (EZH2+/+ (Non-linear Fit)) it was 0.47 kcal/mol. Besides, the “Enthalpic Efficiency (koff)” value is 1.9 kcal/mol in experiment [6] (EZH2+/+ (Linear Fit)) and 1.3 kcal/mol in experiment [6] (EZH2+/+ (Non-linear Fit)). The “-T * ΔS°kon-koff” value is -7.51 kcal/mol in experiment [6] (EZH2+/+ (Linear Fit)) and -5.28 kcal/mol in experiment [6] (EZH2+/+ (Non-linear Fit)). Further, the “ΔG°kon-koff” value in experiment [6] (EZH2+/+ (Linear Fit)) was -12 kcal/mol; in experiment [6] (EZH2+/+ (Non-linear Fit)), -12.1 kcal/mol. The “ΔH°kon-koff” value in experiment [6] (EZH2+/+ (Linear Fit)) was -4.49 kcal/mol; in experiment [6] (EZH2+/+ (Non-linear Fit)) it was -6.79 kcal/mol.
